Results published in the NIST ThermoML archive (doi:10.1016/j.jct.2011.07.005).
± gives the expanded uncertainty stated by the source.

Conditions: Liquid; for mass density: Vibrating tube method

CCCCC(CC)COC(=O)CCCCCCCCC(=O)OCC(CC)CCCC (centres undefined) [bis(2-ethylhexyl) decanedioate]
Conditions	mass density [kg/m3]	viscosity [mPa·s]
278.15 K, 101.33 kPa	924.7 ± 1.6	–
278.15 K, Concentric cylinders viscometry	–	42.04 ± 0.95
283.15 K, 101.33 kPa	921.2 ± 1.6	–
283.15 K, Concentric cylinders viscometry	–	32.77 ± 0.74
288.15 K, 101.33 kPa	917.6 ± 1.6	–
288.15 K, Concentric cylinders viscometry	–	26.01 ± 0.59
293.15 K, 101.33 kPa	913.9 ± 1.6	–
293.15 K, Concentric cylinders viscometry	–	21 ± 0.48
298.15 K, 100 kPa	909.8 ± 1.6	–
298.15 K, 101.33 kPa	910.3 ± 1.6	–
298.15 K, 1000 kPa	910.4 ± 1.6	–
298.15 K, 5000 kPa	912.8 ± 1.6	–
298.15 K, 10000 kPa	915.6 ± 1.6	–
298.15 K, 15000 kPa	918.4 ± 1.6	–
298.15 K, 20000 kPa	921.2 ± 1.6	–
298.15 K, 30000 kPa	926.4 ± 1.6	–
298.15 K, 40000 kPa	931.4 ± 1.6	–
298.15 K, 45000 kPa	933.8 ± 1.6	–
298.15 K, 50000 kPa	936.1 ± 1.6	–
298.15 K, 60000 kPa	940.6 ± 1.6	–
298.15 K, Concentric cylinders viscometry	–	17.21 ± 0.39
303.15 K, 101.33 kPa	906.7 ± 1.6	–
303.15 K, Concentric cylinders viscometry	–	14.32 ± 0.32
308.15 K, 101.33 kPa	903.1 ± 1.6	–
308.15 K, Concentric cylinders viscometry	–	12.07 ± 0.27
313.15 K, 101.33 kPa	899.5 ± 1.5	–
313.15 K, Concentric cylinders viscometry	–	10.28 ± 0.23
318.15 K, 101.33 kPa	895.9 ± 1.5	–
318.15 K, Concentric cylinders viscometry	–	8.845 ± 0.2
323.15 K, 100 kPa	892 ± 1.5	–
323.15 K, 101.33 kPa	892.3 ± 1.5	–
323.15 K, 1000 kPa	892.6 ± 1.5	–
323.15 K, 5000 kPa	895.3 ± 1.6	–
323.15 K, 10000 kPa	898.5 ± 1.6	–
323.15 K, 15000 kPa	901.7 ± 1.6	–
323.15 K, 20000 kPa	904.7 ± 1.6	–
323.15 K, 30000 kPa	910.4 ± 1.6	–
323.15 K, 40000 kPa	915.8 ± 1.6	–
323.15 K, 45000 kPa	918.4 ± 1.6	–
323.15 K, 50000 kPa	920.9 ± 1.6	–
323.15 K, 60000 kPa	925.7 ± 1.6	–
323.15 K, Concentric cylinders viscometry	–	7.679 ± 0.17
328.15 K, 101.33 kPa	888.7 ± 1.5	–
328.15 K, Concentric cylinders viscometry	–	6.727 ± 0.15
333.15 K, 101.33 kPa	885.1 ± 1.5	–
333.15 K, Concentric cylinders viscometry	–	5.939 ± 0.13
338.15 K, 101.33 kPa	881.4 ± 1.5	–
338.15 K, Concentric cylinders viscometry	–	5.275 ± 0.12
343.15 K, 101.33 kPa	877.9 ± 1.5	–
343.15 K, Concentric cylinders viscometry	–	4.719 ± 0.11
348.15 K, 100 kPa	874 ± 1.5	–
348.15 K, 101.33 kPa	874.3 ± 1.5	–
348.15 K, 1000 kPa	874.7 ± 1.5	–
348.15 K, 5000 kPa	877.7 ± 1.5	–
348.15 K, 10000 kPa	881.3 ± 1.6	–
348.15 K, 15000 kPa	884.8 ± 1.6	–
348.15 K, 20000 kPa	888.2 ± 1.6	–
348.15 K, 30000 kPa	894.5 ± 1.6	–
348.15 K, 40000 kPa	900.5 ± 1.6	–
348.15 K, 45000 kPa	903.3 ± 1.6	–
348.15 K, 50000 kPa	906 ± 1.6	–
348.15 K, 60000 kPa	911.3 ± 1.6	–
348.15 K, Concentric cylinders viscometry	–	4.248 ± 0.096
353.15 K, 101.33 kPa	870.7 ± 1.5	–
353.15 K, Concentric cylinders viscometry	–	3.843 ± 0.087
358.15 K, 101.33 kPa	867.1 ± 1.5	–
358.15 K, Concentric cylinders viscometry	–	3.494 ± 0.079
363.15 K, 101.33 kPa	863.7 ± 1.5	–
363.15 K, Concentric cylinders viscometry	–	3.169 ± 0.072
368.15 K, 101.33 kPa	859.9 ± 1.5	–
368.15 K, Concentric cylinders viscometry	–	2.902 ± 0.066
373.15 K, 101.33 kPa	856.4 ± 1.5	–
373.15 K, 1000 kPa	856.9 ± 1.5	–
373.15 K, 5000 kPa	860.3 ± 1.5	–
373.15 K, 10000 kPa	864.3 ± 1.6	–
373.15 K, 15000 kPa	868.1 ± 1.6	–
373.15 K, 20000 kPa	871.8 ± 1.6	–
373.15 K, 30000 kPa	878.8 ± 1.6	–
373.15 K, 40000 kPa	885.2 ± 1.6	–
373.15 K, 45000 kPa	888.3 ± 1.6	–
373.15 K, 50000 kPa	891.3 ± 1.6	–
373.15 K, 60000 kPa	897 ± 1.7	–
373.15 K, Concentric cylinders viscometry	–	2.661 ± 0.061
398.15 K, 1000 kPa	839 ± 1.5	–
398.15 K, 5000 kPa	842.8 ± 1.5	–
398.15 K, 10000 kPa	847.3 ± 1.6	–
398.15 K, 15000 kPa	851.6 ± 1.6	–
398.15 K, 20000 kPa	855.8 ± 1.6	–
398.15 K, 30000 kPa	863.4 ± 1.6	–
398.15 K, 40000 kPa	870.4 ± 1.6	–
398.15 K, 45000 kPa	873.7 ± 1.6	–
398.15 K, 50000 kPa	877 ± 1.6	–
398.15 K, 60000 kPa	883.1 ± 1.7	–

viscosity [mPa·s], Falling or rolling sphere viscometry
Conditions	298.15 K	313.15 K	323.15 K	348.15 K	373.15 K	398.15 K
100 kPa	17 ± 1.4	10.2 ± 0.8	7.53 ± 0.61	4.17 ± 0.34	2.67 ± 0.22	1.84 ± 0.15
1000 kPa	17.3 ± 1.4	10.3 ± 0.8	7.63 ± 0.62	4.21 ± 0.34	2.7 ± 0.22	1.86 ± 0.15
5000 kPa	18.4 ± 1.5	10.9 ± 0.9	8.09 ± 0.65	4.42 ± 0.36	2.84 ± 0.23	1.96 ± 0.16
10000 kPa	19.9 ± 1.6	11.7 ± 0.9	8.68 ± 0.7	4.69 ± 0.38	3.03 ± 0.25	2.07 ± 0.17
15000 kPa	21.5 ± 1.7	12.5 ± 1	9.29 ± 0.75	4.97 ± 0.4	3.22 ± 0.26	2.2 ± 0.18
20000 kPa	23.2 ± 1.9	13.4 ± 1.1	9.94 ± 0.8	5.28 ± 0.43	3.42 ± 0.28	2.32 ± 0.19
30000 kPa	26.8 ± 2.2	15.2 ± 1.2	11.3 ± 0.9	5.94 ± 0.48	3.83 ± 0.31	2.59 ± 0.21
40000 kPa	30.8 ± 2.5	17.3 ± 1.4	12.8 ± 1	6.68 ± 0.54	4.27 ± 0.35	2.86 ± 0.23
45000 kPa	33 ± 2.7	18.4 ± 1.5	13.6 ± 1.1	7.07 ± 0.57	4.49 ± 0.36	3.01 ± 0.24
50000 kPa	35.2 ± 2.8	19.6 ± 1.6	14.4 ± 1.2	7.48 ± 0.61	4.72 ± 0.38	3.16 ± 0.26
60000 kPa	40 ± 3.2	22 ± 1.8	16 ± 1.3	8.37 ± 0.68	5.19 ± 0.42	3.46 ± 0.28
